Legend:
[1] = PFAS levels in serum samples of airport employees (LC/MS/MS)
Method in brief: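 Serum from airport employees, drawn after contaminated drinking-water exposure ended, up to five monthly rounds, all reanalyzed in one batch. 25 μL serum precipitated with acetonitrile/methanol plus labeled internal standards; LC/MS/MS on BEH C18 with ammonium acetate/methanol gradient, calibrants prepared in FBS.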

[2] = PFAS levels in urine samples of airport employees, specific-gravity adjusted (LC/MS/MS); format: in vivo, human
Experimental: Only one employee provided a single urine sample. […] All employees provided written informed consent.
The samples were thawed 1–2 h, then mixed by vortex shaker and manual turning. […] For the urine samples, 50μL urine was mixed with 25μL of methanol and 25μL of a 50% acetonitrile solution containing isotopically labeled internal standards (see Table S1). Then samples were shaken vigorously for 30 min and centrifuged at 3,000×g for 10 min at room temperature.
Aliquots of 20μL of the sample were analyzed using LC/MS/MS. […] The analysis was performed in negative ion mode. The ion source temperature was at 350°C.
Urinary PFAS concentrations were specific-gravity adjusted. The ratio of urine and serum concentration for each PFAS (urine/serum ratio) at each sampling was calculated based on PFAS concentrations in paired serum and urine samples from 17 employees. Then the personal average urine/serum ratio was calculated using the mean value of repeated samplings for each employee.

Serum/water ratio = format: in vivo, human; conditions: median serum level of first samples (26 employees) divided by airport drinking-water level
Experimental: The ratio of serum and water concentration for each PFAS (serum/water ratio) was calculated based on median serum level in the first serum sample obtained from all 26 airport employees divided by the drinking-water concentration. This ratio is an indicator of PFAS accumulation in body.

[3] = 1st sampling (September 2018), count 17
[4] = 2nd sampling (October 2018), count 17
[5] = 3rd sampling (November, 2018), count 17
[6] = 4th sampling (December 2018), count 16
[7] = 5th sampling (January 2019), count 16
[8] = median of first serum samples, all 26 airport employees
[9] = 3rd sampling (November, 2018), count 16
[10] = 4th sampling (December 2018), count 14
[11] = 5th sampling (January 2019), count 12

## O=S(=O)(O)C(F)(F)C(F)(F)C(F)(F)C(F)(F)C(F)(F)C(F)(F)C(F)(F)C(F)(F)F [L-PFOS, linear perfluorooctane sulfonic acid]
[1]; [3]
  Serum PFAS level, 25 percentile: 7.7
  Serum PFAS level, 75 percentile: 15
  Serum PFAS level, Max: 28
  Serum PFAS level, Median: 11
  Serum PFAS level, Min: 5.5
[1]; [4]
  Serum PFAS level, 25 percentile: 7.6
  Serum PFAS level, 75 percentile: 16
  Serum PFAS level, Max: 24
  Serum PFAS level, Median: 10
  Serum PFAS level, Min: 4.1
[1]; [5]
  Serum PFAS level, 25 percentile: 7.3
  Serum PFAS level, 75 percentile: 16
  Serum PFAS level, Max: 23
  Serum PFAS level, Median: 11
  Serum PFAS level, Min: 4.7
[1]; [6]
  Serum PFAS level, 25 percentile: 7.4
  Serum PFAS level, 75 percentile: 14
  Serum PFAS level, Max: 24
  Serum PFAS level, Median: 9.8
  Serum PFAS level, Min: 4.4
[1]; [7]
  Serum PFAS level, 25 percentile: 9.1
  Serum PFAS level, 75 percentile: 16
  Serum PFAS level, Max: 23
  Serum PFAS level, Median: 10
  Serum PFAS level, Min: 4.5
[1]; all 26 airport employees
  Serum level in the first samples, median (range): 9.5 (5.4–28) ng/mL
[1]; employees participated in first blood sampling and repeated blood and urine sampling, N=17
  PFAS in first serum sample, median (range): 11 (5.5–28) ng/mL
[1]; employees participated in first blood sampling only, N=9, 11-14 d after end of exposure
  PFAS in first serum sample, median (range): 6.5 (5.4–13) ng/mL
[1]; females (N=7)
  Initial serum PFAS level, max: 13 ng/mL
  Initial serum PFAS level, median: 9.3 ng/mL
  Initial serum PFAS level, min: 5.5 ng/mL
[1]; first serum samples, all 26 airport employees
  Relative composition of PFAS in serum, weight basis: 8.6%
[1]; first serum samples, all 26 airport employees, listed as PFOS (linear)
  Relative composition of PFAS in serum, molar concentration basis: 7.0%
[1]; males (N=19)
  Initial serum PFAS level, Max: 28 ng/mL
  Initial serum PFAS level, Min: 5.4 ng/mL
  Initial serum PFAS level, median: 10 ng/mL
[1]; [8]
  Serum concentration, molar basis: 0.019
  Serum concentration, weight basis: 9.5
[1]; second to fifth samplings, 17 airport employees
  Serum level, median (range): 10 (4.1–24) ng/mL
[2]; [4]
  Specific gravity adjusted urinary level, 25 percentile: < LOD
  Specific gravity adjusted urinary level, 75 percentile: 0.01 ng/mL
  Specific gravity adjusted urinary level, Max: 0.08 ng/mL
  Specific gravity adjusted urinary level, Median: < LOD
  Specific gravity adjusted urinary level, Min: < LOD
[2]; [9]
  Specific gravity adjusted urinary level, 25 percentile: < LOD
  Specific gravity adjusted urinary level, 75 percentile: 0.02 ng/mL
  Specific gravity adjusted urinary level, Max: 0.03 ng/mL
  Specific gravity adjusted urinary level, Median: 0.01 ng/mL
  Specific gravity adjusted urinary level, Min: < LOD
[2]; [10]
  Specific gravity adjusted urinary level, 25 percentile: < LOD
  Specific gravity adjusted urinary level, 75 percentile: 0.02 ng/mL
  Specific gravity adjusted urinary level, Max: 0.05 ng/mL
  Specific gravity adjusted urinary level, Median: < LOD
  Specific gravity adjusted urinary level, Min: < LOD
[2]; [11]
  Specific gravity adjusted urinary level, 25 percentile: < LOD
  Specific gravity adjusted urinary level, 75 percentile: 0.01 ng/mL
  Specific gravity adjusted urinary level, Max: 0.04 ng/mL
  Specific gravity adjusted urinary level, Median: < LOD
  Specific gravity adjusted urinary level, Min: < LOD
Serum/water ratio
  Serum/water ratio: 153

From PMC7351026, “Serum Half-Lives for Short- and Long-Chain Perfluoroalkyl Acids after Ceasing Exposure from Drinking Water Contaminated by Firefighting Foam” (Environmental Health Perspectives, 2020)
